# Reference: US4260774A, “5-Carbamoyl imidazoles” (Sumitomo Chemical Company, Limited, priority 1976, dated 1981)
# What was measured:
# [1] = system: plaque forming cell (PFC); assay: Immunosuppressive activity: plaque forming cell (PFC) number by Cunningham method in mice injected with sheep red blood cells; assay type: in vivo; conditions: days 0 to 3, measured day 4
# Protocol: The immunosuppressive activities of the compounds of the present invention, Azathioprine and 6-mercaptopurine are given in the following table. After a sheep red blood cell preparation (SRBC) was injected in mice, the compounds were administered orally once a day on days 0 to 3. The plaque forming cell (PFC) number was measured on day 4 by Cunningham method. [Cunningham A. J. et al. Immunol. 14, 599 (1968)]
# Sarcoma 180 = assay: Antitumor effect on mouse experimental tumor Sarcoma 180 (solid); assay type: in vivo, mouse (ICR-JCL male mice); conditions: Sarcoma-180, ip, 240 h; for inhibition in vivo at 100 mg/kg: 100 mg/kg i.p.
# Protocol: ICR-JCL male mice, 5 weeks old, weighing between 23 and 26 grams were used. Each test group was composed of 5 mice. One million cells of Sarcoma 180 were injected intramusculary in hind leg. The drug was administered intrapenitoneally at day 1, 3, 5, 7 and 9. After killing the mice at day 10, tumors were removed and weighed. The tumor inhibitory ratio was calculated according to the following formula. [formula]
# [2] = in words; literature; cited from earlier work
# lymphatic leukemia L1210 = conditions: in words; literature; cited from earlier work
# L5178Y cells = conditions: in words; literature; suggested due to metabolic conversion to bredinin; cited from earlier work
# mouse leukemia P388 = assay: Antitumor effect on mouse experimental tumor P388 leukemia; assay type: in vivo, CDF1 mouse; conditions: day 1 & 5
# Description: The antitumor activities of the compounds of the present invention were estimated according to the methods described in "Oyo-Yakuri," Vol. 14, P. 521 (in Japanese).
# animals: CDF1 mouse (6 mice/group)
# tumor: mouse leukemia P388
# inoculum size: 10^6 cells/mouse
# day of administration: day 1 & 5
# administration route: i.p.
# evaluation: median survival time
# [3] = day 1, 3, 5, 7 and 9, tumor weight day 10, read-out: Inhibition Ratio (%) Sarcoma 180 (solid)
# [4] = read-out: Inhibition Ratio (%) Sarcoma 180 (solid)
compound,measurement,setting,value
"Cn1cnc([N+](=O)[O-])c1Sc1ncnc2nc[nH]c12 [Azathioprine, 6-(1-methyl-4-nitro-5-imidazolyl)mercaptopurine, reference compound]",Effects PFC/spleen × 10^-4,[1]; 100 mg/kg/day p.o.,26.73 PFC/spleen × 10^-4
same,Suppression (%),[1]; 100 mg/kg/day p.o.,81.6%
"NC(=O)c1[nH]cnc1OC(=O)c1ccccc1 [5-Carbamoyl-1H-imidazole-4-yl benzoate, 5-carbamoyl-1H-imidazol-4-yl benzoate]",Effects PFC/spleen × 10^-4,[1]; 25 mg/kg/day p.o.,19.88 ± 6.06 PFC/spleen × 10^-4
same,Suppression (%),[1]; 25 mg/kg/day p.o.,68.1%
same,Effects PFC/spleen × 10^-4,[1]; 100 mg/kg/day p.o.,8.63 ± 2.61 PFC/spleen × 10^-4
same,Suppression (%),[1]; 100 mg/kg/day p.o.,89.4%
"NC(=O)c1[nH]cnc1OC(=O)c1ccc2c(c1)OCO2 [5-carbamoyl-1H-imidazol-4-yl 3,4-methylenedioxybenzoate]",inhibition in vivo at 100 mg/kg,Sarcoma 180; [3],65.1%
Cc1ccc(C(=O)Oc2nc[nH]c2C(N)=O)cc1 [5-Carbamoyl-1H-imidazol-4-yl p-methylbenzoate],inhibition in vivo at 100 mg/kg,Sarcoma 180; [3],38.3%
N#Cc1cccc(C(=O)Oc2nc[nH]c2C(N)=O)c1 [5-Carbamoyl-1H-imidazol-4-yl m-cyanobenzoate],inhibition in vivo at 100 mg/kg,Sarcoma 180; [3],38.3%
NC(=O)c1[nH]cnc1OC(=O)c1ccc(Cl)cc1 [5-carbamoyl-1H-imidazol-4-yl p-chlorobenzoate],Effects PFC/spleen × 10^-4,[1]; 25 mg/kg/day p.o.,22.06 ± 5.37 PFC/spleen × 10^-4
same,Suppression (%),[1]; 25 mg/kg/day p.o.,64.6%
same,inhibition in vivo at 100 mg/kg,Sarcoma 180; [3],49.1%
NC(=O)c1[nH]cnc1OC(=O)c1ccc([N+](=O)[O-])cc1 [5-Carbamoyl-1H-imidazol-4-yl p-nitrobenzoate],inhibition in vivo at 100 mg/kg,Sarcoma 180; [3],44.7%
"NC(=O)c1ncn([C@@H]2O[C@H](CO)[C@@H](O)[C@H]2O)c1O [bredinin, 4-carbamoyl-1-β-D-ribofuranosylimidazolium-5-olate]",immunosuppressive activity / effects,[2],has immunosuppressive activity
same,antitumor activity against lymphatic leukemia L1210,lymphatic leukemia L1210,weak antitumor activity
"O=c1[nH]cc(F)c(=O)[nH]1 [5-Fluorouracil, reference compound]",inhibition in vivo at 30 mg/kg,Sarcoma 180; [4],66%
"CO[C@@]12[C@H](COC(N)=O)C3=C(C(=O)C(C)=C(N)C3=O)N1C[C@@H]1N[C@@H]12 [Mitomycin C, reference compound]",inhibition in vivo at 2 mg/kg,Sarcoma 180; [4],74%
NC(=O)c1[nH]cnc1OC(=O)c1ccc(Br)cc1 [5-carbamoyl-1H-imidazol-4-yl p-bromobenzoate],inhibition in vivo at 100 mg/kg,Sarcoma 180; [3],66%
"Sc1ncnc2nc[nH]c12 [6-Mercaptopurine, 6-mercaptopurine, reference compound]",Effects PFC/spleen × 10^-4,[1]; 25 mg/kg/day p.o.,30.78 ± 6.28 PFC/spleen × 10^-4
same,Suppression (%),[1]; 25 mg/kg/day p.o.,60.2%
NC(=O)c1[nH]cnc1OC(=O)c1ccc(F)cc1 [5-Carbamoyl-1H-imidazol-4-yl p-fluorobenzoate],inhibition in vivo at 100 mg/kg,Sarcoma 180; [3],36%
NC(=O)c1nc[nH]c1O [4-carbamoylimidazolium-5-olate],immunosuppressive activity / effects,[2],immunosuppressive effects
same,growth inhibitory effects on L5178Y cells,L5178Y cells,growth inhibitory effects
NC(=O)c1[nH]cnc1OC(=O)C12CC3CC(CC(C3)C1)C2 [5-carbamoyl-1H-imidazol-4-yl 1-adamantanecarboxylate],Evaluation T/C (%) P388 (median survival time),mouse leukemia P388; 100 mg/kg i.p.,112%
same,Evaluation T/C (%) P388 (median survival time),mouse leukemia P388; 200 mg/kg i.p.,120%
same,Evaluation T/C (%) P388 (median survival time),mouse leukemia P388; 400 mg/kg i.p.,138%
same,Effects PFC/spleen × 10^-4,[1]; 25 mg/kg/day p.o.,14.19 ± 2.24 PFC/spleen × 10^-4
same,Suppression (%),[1]; 25 mg/kg/day p.o.,77.2%
same,Effects PFC/spleen × 10^-4,[1]; 100 mg/kg/day p.o.,5.19 ± 1.29 PFC/spleen × 10^-4
same,Suppression (%),[1]; 100 mg/kg/day p.o.,93.6%
same,inhibition in vivo at 50 mg/kg,"Sarcoma 180; 50 mg/kg i.p., day 1, 3, 5, 7 and 9, tumor weight day 10, read-out: Inhibition Ratio (%) Sarcoma 180 (solid)",53.9%
same,inhibition in vivo at 100 mg/kg,Sarcoma 180; [3],71.4%
same,inhibition in vivo at 200 mg/kg,"Sarcoma 180; 200 mg/kg i.p., day 1, 3, 5, 7 and 9, tumor weight day 10, read-out: Inhibition Ratio (%) Sarcoma 180 (solid)",88.8%
same,inhibition in vivo at 206 mg/kg,"Sarcoma 180; 206 mg/kg i.p., day 1, 3, 5, 7 and 9, tumor weight day 10, read-out: Inhibition Ratio (%) Sarcoma 180 (solid)",100%
